{
  "source": "patent US9211310B2",
  "about": "“Use of a Chinese medicine composition in preparing medicaments for treating secondary prevention of myocardial infarction” (TASLY PHARMACEUTICAL GROUP CO., LTD, priority 2010, dated 2015)",
  "tested_on": "patients after acute myocardial infarction",
  "assay": "Life quality, Seattle Angina Questionnaire (SAQ), same clinical trial",
  "assay_type": "in vivo, human",
  "text": "3508 patients who were in accordance with the diagnostic standards of AMI for 28 days to 2 years and differentiated as Qi deficiency and blood stagnation syndrome by TCM were studied. 0.5 g Chinese medicine composition prepared by the method of EXAMPLE 1 (Coded as QSYQ) was administrated half an hour after meal, 3 times per day.\nThere were 19 questions in the Seattle angina questionnaire (SAQ), including 5 parts: physical limitation (PL), anginal stability (AS), anginal frequency (AF), treatment satisfaction (TS) and disease perception (DP). After being given necessary explanation by doctors, the questions were answered independently by patients.\nThey included the overall survival time, angina pectoris score, TCM symptom score and life quality score, where angina pectoris score, TCM symptom score and life quality score were evaluated at randomization, in 1st, 3rd, 6th, 9th, 12th month after treatment and 18th month after follow-up.\nAll evaluation results of SAQ were described during the period of observation, and Wilcoxon rank sum test was used for inter-group comparison.\nThe evaluation results in the SAQ were depicted in different observations, and inter-group comparison was tested by Wilcoxon Rank-sum test.",
  "data": [
    {"smiles": "CC(=O)Oc1ccccc1C(=O)O", "note": "[Control group, aspirine]", "values": [
      {"measurement": "SAQ 2nd question: Slightly increased, cases", "setting": "1 month after treatment, PP", "result": 43},
      {"measurement": "SAQ 2nd question: Slightly reduced, % of cases", "setting": "1 month after treatment, PP", "result": "(30.18%)"},
      {"measurement": "SAQ 2nd question: Slightly reduced, cases", "setting": "1 month after treatment, PP", "result": 447},
      {"measurement": "SAQ 3rd question: 1-2 times per week, % of cases", "setting": "1 month after treatment, PP", "result": "(30.18%)"},
      {"measurement": "SAQ 3rd question: 1-2 times per week, cases", "setting": "1 month after treatment, PP", "result": 447},
      {"measurement": "SAQ 3rd question: 1-3 times per day, % of cases", "setting": "1 month after treatment, PP", "result": "(2.90%)"},
      {"measurement": "SAQ 3rd question: 1-3 times per day, cases", "setting": "1 month after treatment, PP", "result": 43},
      {"measurement": "SAQ 3rd question: <1 time per week, % of cases", "setting": "1 month after treatment, PP", "result": "(16.75%)"},
      {"measurement": "SAQ 3rd question: <1 time per week, cases", "setting": "1 month after treatment, PP", "result": 248},
      {"measurement": "SAQ 3rd question: No onset, % of cases", "setting": "1 month after treatment, PP", "result": "(0.00%)"},
      {"measurement": "SAQ 3rd question: No onset, cases", "setting": "1 month after treatment, PP", "result": 0},
      {"measurement": "SAQ 3rd question: ≧3 times per week, % of cases", "setting": "1 month after treatment, PP", "result": "(49.63%)"},
      {"measurement": "SAQ 3rd question: ≧3 times per week, cases", "setting": "1 month after treatment, PP", "result": 735},
      {"measurement": "SAQ 3rd question: ≧4 times per day, % of cases", "setting": "1 month after treatment, PP", "result": "(0.54%)"},
      {"measurement": "SAQ 3rd question: ≧4 times per day, cases", "setting": "1 month after treatment, PP", "result": 8},
      {"measurement": "SAQ Question 1-3: Mildly limited, number of patients", "setting": "1 month after treatment, PP", "result": 114},
      {"measurement": "SAQ Question 1-3: Mildly limited, percent of patients", "setting": "1 month after treatment, PP", "result": "(7.67%)"},
      {"measurement": "SAQ Question 1-3: Moderately limited, number of patients", "setting": "1 month after treatment, PP", "result": 25},
      {"measurement": "SAQ Question 1-3: Moderately limited, percent of patients", "setting": "1 month after treatment, PP", "result": "(1.68%)"},
      {"measurement": "SAQ Question 1-3: Not limited, number of patients", "setting": "1 month after treatment, PP", "result": 1064},
      {"measurement": "SAQ Question 1-3: Not limited, percent of patients", "setting": "1 month after treatment, PP", "result": "(71.60%)"},
      {"measurement": "SAQ Question 1-3: Other reasons, number of patients", "setting": "1 month after treatment, PP", "result": 7},
      {"measurement": "SAQ Question 1-3: Other reasons, percent of patients", "setting": "1 month after treatment, PP", "result": "(0.47%)"},
      {"measurement": "SAQ Question 1-3: Severely limited, number of patients", "setting": "1 month after treatment, PP", "result": 5},
      {"measurement": "SAQ Question 1-3: Severely limited, percent of patients", "setting": "1 month after treatment, PP", "result": "(0.34%)"},
      {"measurement": "SAQ Question 1-3: Slightly limited, number of patients", "setting": "1 month after treatment, PP", "result": 271},
      {"measurement": "SAQ Question 1-3: Slightly limited, percent of patients", "setting": "1 month after treatment, PP", "result": "(18.24%)"},
      {"measurement": "SAQ Question 1-4: Mildly limited, number of patients", "setting": "1 month after treatment, PP", "result": 303},
      {"measurement": "SAQ Question 1-4: Mildly limited, percent of patients", "setting": "1 month after treatment, PP", "result": "(20.43%)"},
      {"measurement": "SAQ Question 1-4: Moderately limited, number of patients", "setting": "1 month after treatment, PP", "result": 138},
      {"measurement": "SAQ Question 1-4: Moderately limited, percent of patients", "setting": "1 month after treatment, PP", "result": "(9.31%)"},
      {"measurement": "SAQ Question 1-4: Not limited, number of patients", "setting": "1 month after treatment, PP", "result": 521},
      {"measurement": "SAQ Question 1-4: Not limited, percent of patients", "setting": "1 month after treatment, PP", "result": "(35.13%)"},
      {"measurement": "SAQ Question 1-4: Other reasons, number of patients", "setting": "1 month after treatment, PP", "result": 11},
      {"measurement": "SAQ Question 1-4: Other reasons, percent of patients", "setting": "1 month after treatment, PP", "result": "(0.74%)"},
      {"measurement": "SAQ Question 1-4: Severely limited, number of patients", "setting": "1 month after treatment, PP", "result": 27},
      {"measurement": "SAQ Question 1-4: Severely limited, percent of patients", "setting": "1 month after treatment, PP", "result": "(1.82%)"},
      {"measurement": "SAQ Question 1-4: Slightly limited, number of patients", "setting": "1 month after treatment, PP", "result": 483},
      {"measurement": "SAQ Question 1-4: Slightly limited, percent of patients", "setting": "1 month after treatment, PP", "result": "(32.57%)"},
      {"measurement": "SAQ Question 1-5: Mildly limited, number of patients", "setting": "1 month after treatment, PP", "result": 278},
      {"measurement": "SAQ Question 1-5: Mildly limited, percent of patients", "setting": "1 month after treatment, PP", "result": "(18.76%)"},
      {"measurement": "SAQ Question 1-5: Moderately limited, number of patients", "setting": "1 month after treatment, PP", "result": 166},
      {"measurement": "SAQ Question 1-5: Moderately limited, percent of patients", "setting": "1 month after treatment, PP", "result": "(11.20%)"},
      {"measurement": "SAQ Question 1-5: Not limited, number of patients", "setting": "1 month after treatment, PP", "result": 546},
      {"measurement": "SAQ Question 1-5: Not limited, percent of patients", "setting": "1 month after treatment, PP", "result": "(36.84%)"},
      {"measurement": "SAQ Question 1-5: Other reasons, number of patients", "setting": "1 month after treatment, PP", "result": 9},
      {"measurement": "SAQ Question 1-5: Other reasons, percent of patients", "setting": "1 month after treatment, PP", "result": "(0.61%)"},
      {"measurement": "SAQ Question 1-5: Severely limited, number of patients", "setting": "1 month after treatment, PP", "result": 24},
      {"measurement": "SAQ Question 1-5: Severely limited, percent of patients", "setting": "1 month after treatment, PP", "result": "(1.62%)"},
      {"measurement": "SAQ Question 1-5: Slightly limited, number of patients", "setting": "1 month after treatment, PP", "result": 459},
      {"measurement": "SAQ Question 1-5: Slightly limited, percent of patients", "setting": "1 month after treatment, PP", "result": "(30.97%)"},
      {"measurement": "SAQ Question 1-9: Mildly limited, % of cases", "setting": "1 month after treatment, PP", "result": "(16.54%)"},
      {"measurement": "SAQ Question 1-9: Mildly limited, cases", "setting": "1 month after treatment, PP", "result": 239},
      {"measurement": "SAQ Question 1-9: Moderately limited, % of cases", "setting": "1 month after treatment, PP", "result": "(21.45%)"},
      {"measurement": "SAQ Question 1-9: Moderately limited, cases", "setting": "1 month after treatment, PP", "result": 310},
      {"measurement": "SAQ Question 1-9: Not limited, % of cases", "setting": "1 month after treatment, PP", "result": "(2.98%)"},
      {"measurement": "SAQ Question 1-9: Not limited, cases", "setting": "1 month after treatment, PP", "result": 43},
      {"measurement": "SAQ Question 1-9: Other reasons, % of cases", "setting": "1 month after treatment, PP", "result": "(6.44%)"},
      {"measurement": "SAQ Question 1-9: Other reasons, cases", "setting": "1 month after treatment, PP", "result": 93},
      {"measurement": "SAQ Question 1-9: Severely limited, % of cases", "setting": "1 month after treatment, PP", "result": "(42.70%)"},
      {"measurement": "SAQ Question 1-9: Severely limited, cases", "setting": "1 month after treatment, PP", "result": 617},
      {"measurement": "SAQ Question 1-9: Slightly limited, % of cases", "setting": "1 month after treatment, PP", "result": "(9.90%)"},
      {"measurement": "SAQ Question 1-9: Slightly limited, cases", "setting": "1 month after treatment, PP", "result": 143},
      {"measurement": "SAQ 2nd question: Clearly increased, % of cases", "setting": "3 months after treatment, FAS", "result": "(0.92%)"},
      {"measurement": "SAQ 2nd question: Clearly increased, cases", "setting": "3 months after treatment, FAS", "result": 16},
      {"measurement": "SAQ 2nd question: Clearly reduced, % of cases", "setting": "3 months after treatment, FAS", "result": "(21.15%)"},
      {"measurement": "SAQ 2nd question: Clearly reduced, cases", "setting": "3 months after treatment, FAS", "result": 368},
      {"measurement": "SAQ 2nd question: Same, % of cases", "setting": "3 months after treatment, FAS", "result": "(42.13%)"},
      {"measurement": "SAQ 2nd question: Same, cases", "setting": "3 months after treatment, FAS", "result": 733},
      {"measurement": "SAQ 2nd question: Slightly increased, % of cases", "setting": "3 months after treatment, FAS", "result": "(3.79%)"},
      {"measurement": "SAQ 2nd question: Slightly increased, cases", "setting": "3 months after treatment, FAS", "result": 66},
      {"measurement": "SAQ 2nd question: Slightly reduced, % of cases", "setting": "3 months after treatment, FAS", "result": "(32.01%)"},
      {"measurement": "SAQ 2nd question: Slightly reduced, cases", "setting": "3 months after treatment, FAS", "result": 557},
      {"measurement": "SAQ 3rd question: 1-2 times per week, % of cases", "setting": "3 months after treatment, FAS", "result": "(32.01%)"},
      {"measurement": "SAQ 3rd question: 1-2 times per week, cases", "setting": "3 months after treatment, FAS", "result": 557},
      {"measurement": "SAQ 3rd question: 1-3 times per day, % of cases", "setting": "3 months after treatment, FAS", "result": "(3.79%)"},
      {"measurement": "SAQ 3rd question: 1-3 times per day, cases", "setting": "3 months after treatment, FAS", "result": 66}
    ]}
  ]
}
